Reference: the supplement of paper PMC13380429

Assays:
Caco-2 [1] = assay: drug sensitivity score (DSS) for viability; higher = more toxic; extreme values may be limits of the assay; settings: 72 h
HepG2 [2] = assay: as above; settings: 72 h
Calu-3 [3] = assay: as above; settings: 72 h
U2OS [4] = assay: as above; settings: 72 h
Vero E6 [5] = assay: as above; settings: 72 h
[6] = test system: A549-ACE2 infected with SARS-CoV-2; assay: SARS-CoV-2 infection rate relative to DMSO; higher = more infection; settings: 24 h
Caco-2 [7] = assay: relative viability EC50 (midpoint between 100% and the lowest measured viability); higher = less toxic; settings: 72 h
HepG2 [8] = assay: as above; settings: 72 h
U2OS [9] = assay: as above; settings: 72 h
Vero E6 [10] = assay: as above; settings: 72 h
[11] = test system: A549-ACE2 infected with SARS-CoV-2; assay: cell count relative to DMSO; higher = less toxic; settings: 24 h
A549-ACE2 [12] = assay: phospholipidosis EC50; higher = less potent phospholipidosis inducer
Caco-2 [13] = assay: cell viability relative to DMSO; higher = less toxic; settings: 72 h
HepG2 [14] = assay: as above; settings: 72 h
Calu-3 [15] = assay: as above; settings: 72 h
U2OS [16] = assay: as above; settings: 72 h
Vero E6 [17] = assay: as above; settings: 72 h
[18] = test system: A549-ACE2 infected with SARS-CoV-2; assay: morphology score (similarity to uninfected cells); higher = more like uninfected cells; settings: 24 h
A549-ACE2 [19] = assay: drug-induced phospholipidosis relative to tamoxifen; higher = more phospholipidosis
Calu-3 [20] = assay: relative viability EC50 (midpoint between 100% and the lowest measured viability); higher = less toxic; settings: 72 h

Fc1cc(-c2cccc3ncc(-c4cnn(C5CCNCC5)c4)nc23)cc(F)c1CN1CCOCC1 [NVP-BSK805]
Settings | drug sensitivity score | relative viability EC50 [µM]
Caco-2 [1] | 2.9 | –
Caco-2 [7] | – | 3.55
Calu-3 [3] | 1.1 | –
HepG2 [2] | 4.6 | –
HepG2 [8] | – | 2.28
U2OS [4] | 4.6 | –
U2OS [9] | – | 2.9
Vero E6 [5] | 2.7 | –
Vero E6 [10] | – | 3.15

Settings | SARS-CoV-2 infection rate [%] | cell count [%] | cell viability [%] | morphology score | phospholipidosis EC50 [µM]
A549-ACE2 [12], 24 h | – | – | – | – | 3.94
A549-ACE2 [12], 48 h | – | – | – | – | 9.74
A549-ACE2 [12], 72 h | – | – | – | – | 4.49
Caco-2 [13], 1 nM | – | – | 99.5 | – | –
Caco-2 [13], 10 nM | – | – | 98.8 | – | –
Caco-2 [13], 100 nM | – | – | 104 | – | –
Caco-2 [13], 1000 nM | – | – | 105 | – | –
Caco-2 [13], 10000 nM | – | – | 39.8 | – | –
Calu-3 [15], 1 nM | – | – | 99.5 | – | –
Calu-3 [15], 10 nM | – | – | 97.2 | – | –
Calu-3 [15], 100 nM | – | – | 95 | – | –
Calu-3 [15], 1000 nM | – | – | 104 | – | –
Calu-3 [15], 10000 nM | – | – | 69.6 | – | –
HepG2 [14], 1 nM | – | – | 106 | – | –
HepG2 [14], 10 nM | – | – | 110 | – | –
HepG2 [14], 100 nM | – | – | 96.2 | – | –
HepG2 [14], 1000 nM | – | – | 93.1 | – | –
HepG2 [14], 10000 nM | – | – | 35.8 | – | –
U2OS [16], 1 nM | – | – | 101 | – | –
U2OS [16], 10 nM | – | – | 101 | – | –
U2OS [16], 100 nM | – | – | 97.6 | – | –
U2OS [16], 1000 nM | – | – | 97.2 | – | –
U2OS [16], 10000 nM | – | – | 22.9 | – | –
Vero E6 [17], 1 nM | – | – | 97.9 | – | –
Vero E6 [17], 10 nM | – | – | 102 | – | –
Vero E6 [17], 100 nM | – | – | 100 | – | –
Vero E6 [17], 1000 nM | – | – | 99.9 | – | –
Vero E6 [17], 10000 nM | – | – | 48.4 | – | –
[6], 0.1 µM | 96 | – | – | – | –
[6], 0.3 µM | 100 | – | – | – | –
[6], 1 µM | 86 | – | – | – | –
[6], 3 µM | 45 | – | – | – | –
[11], 0.1 µM | – | 102 | – | – | –
[11], 0.3 µM | – | 103 | – | – | –
[11], 1 µM | – | 105 | – | – | –
[11], 3 µM | – | 110 | – | – | –
[18], 0.1 µM | – | – | – | 0.17 | –
[18], 0.3 µM | – | – | – | 0.13 | –
[18], 1 µM | – | – | – | 0.47 | –
[18], 3 µM | – | – | – | 0.68 | –

drug-induced phospholipidosis [%], A549-ACE2 [19]
Settings | 0.3 µM | 0.833333 µM | 3.33333 µM | 6.66667 µM | 10 µM | 30 µM
24 h | 5.98 | 16 | 55.1 | 93.5 | 113 | 119
48 h | 2.53 | 10.2 | 51.2 | 101 | 134 | –
72 h | 5.16 | 6.57 | 55.6 | 119 | – | –

CN1CCN(Cc2ccc(-c3cnc4[nH]cc(-c5ccc6[nH]ccc6c5)c4c3)cc2)CC1 [URMC-099]
Settings | drug sensitivity score | relative viability EC50 [µM]
Caco-2 [1] | 4.4 | –
Caco-2 [7] | – | 3.71
Calu-3 [3] | 0 | –
Calu-3 [20] | – | > 10
HepG2 [2] | 7 | –
HepG2 [8] | – | 2.23
U2OS [4] | 6 | –
U2OS [9] | – | 2.79
Vero E6 [5] | 5.1 | –
Vero E6 [10] | – | 3.45

Settings | SARS-CoV-2 infection rate [%] | cell count [%] | cell viability [%] | morphology score | phospholipidosis EC50 [µM]
A549-ACE2 [12], 24 h | – | – | – | – | 1.07
A549-ACE2 [12], 48 h | – | – | – | – | 4.29
A549-ACE2 [12], 72 h | – | – | – | – | 8.25
Caco-2 [13], 1 nM | – | – | 103 | – | –
Caco-2 [13], 10 nM | – | – | 107 | – | –
Caco-2 [13], 100 nM | – | – | 104 | – | –
Caco-2 [13], 1000 nM | – | – | 111 | – | –
Caco-2 [13], 10000 nM | – | – | 7.8 | – | –
Calu-3 [15], 1 nM | – | – | 93.1 | – | –
Calu-3 [15], 10 nM | – | – | 100 | – | –
Calu-3 [15], 100 nM | – | – | 95.3 | – | –
Calu-3 [15], 1000 nM | – | – | 128 | – | –
Calu-3 [15], 10000 nM | – | – | 111 | – | –
HepG2 [14], 1 nM | – | – | 111 | – | –
HepG2 [14], 10 nM | – | – | 89.8 | – | –
HepG2 [14], 100 nM | – | – | 95.8 | – | –
HepG2 [14], 1000 nM | – | – | 89.2 | – | –
HepG2 [14], 10000 nM | – | – | 5.3 | – | –
U2OS [16], 1 nM | – | – | 99 | – | –
U2OS [16], 10 nM | – | – | 95.5 | – | –
U2OS [16], 100 nM | – | – | 104 | – | –
U2OS [16], 1000 nM | – | – | 95.2 | – | –
U2OS [16], 10000 nM | – | – | 3.5 | – | –
Vero E6 [17], 1 nM | – | – | 92.9 | – | –
Vero E6 [17], 10 nM | – | – | 102 | – | –
Vero E6 [17], 100 nM | – | – | 95.4 | – | –
Vero E6 [17], 1000 nM | – | – | 105 | – | –
Vero E6 [17], 10000 nM | – | – | 0.9 | – | –
[6], 0.1 µM | 99 | – | – | – | –
[6], 0.3 µM | 102 | – | – | – | –
[6], 1 µM | 85 | – | – | – | –
[6], 3 µM | 18 | – | – | – | –
[11], 0.1 µM | – | 111 | – | – | –
[11], 0.3 µM | – | 105 | – | – | –
[11], 1 µM | – | 110 | – | – | –
[11], 3 µM | – | 108 | – | – | –
[18], 0.1 µM | – | – | – | 0.26 | –
[18], 0.3 µM | – | – | – | 0.37 | –
[18], 1 µM | – | – | – | 0.6 | –
[18], 3 µM | – | – | – | 0.68 | –

drug-induced phospholipidosis [%], A549-ACE2 [19]
Settings | 0.3 µM | 0.833333 µM | 3.33333 µM | 6.66667 µM | 10 µM
24 h | 3.77 | 15.4 | 149 | 143 | 136
48 h | 2.54 | 6.25 | 111 | 164 | 208
72 h | 3.51 | 1.18 | 69.5 | 69.5 | 200
